Source: US20010041706A1, “Blockade of taxane metabolism” (priority 2000, published 2001)

How the values were obtained:
[1] = target: cytochrome P450 3A4 (CYP3A4) (Homo sapiens, UniProt P08684); settings: hepatocytes
paclitaxel metabolism [2] = test: Paclitaxel metabolism in primary human hepatocytes, overall; format: cell-based; settings: second experiment (FIG. 4), highest concentration tested (50 μM), 24 hours
[3] = Quercetin levels in mouse liver after oral dose (HPLC); format: in vivo; settings: mice receiving oral quercetin 1000 mg/kg
Method: Quercetin twelve hours prior to paclitaxel had no effect on system exposure. […] The peak levels of quercetin measured in the livers of mice receiving oral supplementation were approximately 15 μM, and occurred between 8 and 12 hours after the dose.

[4] = target: T1, cytochrome P450 2C8 (CYP2C8) (Homo sapiens, UniProt P10632); settings: hepatocytes
T1 sequence (P10632 1-490): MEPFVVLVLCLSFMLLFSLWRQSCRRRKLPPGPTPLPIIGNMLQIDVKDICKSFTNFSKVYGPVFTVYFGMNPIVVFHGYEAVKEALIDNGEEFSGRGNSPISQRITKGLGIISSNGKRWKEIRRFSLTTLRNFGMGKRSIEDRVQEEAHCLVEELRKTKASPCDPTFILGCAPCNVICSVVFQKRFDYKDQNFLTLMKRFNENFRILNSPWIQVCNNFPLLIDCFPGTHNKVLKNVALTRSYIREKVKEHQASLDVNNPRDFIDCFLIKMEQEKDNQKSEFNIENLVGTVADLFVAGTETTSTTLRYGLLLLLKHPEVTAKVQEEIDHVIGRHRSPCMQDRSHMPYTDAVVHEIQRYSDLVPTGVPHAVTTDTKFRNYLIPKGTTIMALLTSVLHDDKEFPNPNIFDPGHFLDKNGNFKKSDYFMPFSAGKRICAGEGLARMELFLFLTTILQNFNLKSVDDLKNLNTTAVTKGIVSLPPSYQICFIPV

CYP2C8 = target: T2, CYP2C8 (Homo sapiens, UniProt P10632); settings: previously reported; cited from earlier work
T2 sequence (P10632 1-490): T1 sequence (P10632 1-490)

paclitaxel metabolism [5] = settings: Jamis-Dow et al., Am J. Clin. Oncol. 1997; cited from earlier work

cytochrome P450 3A4 (CYP3A4), sequence (P08684 whole entry): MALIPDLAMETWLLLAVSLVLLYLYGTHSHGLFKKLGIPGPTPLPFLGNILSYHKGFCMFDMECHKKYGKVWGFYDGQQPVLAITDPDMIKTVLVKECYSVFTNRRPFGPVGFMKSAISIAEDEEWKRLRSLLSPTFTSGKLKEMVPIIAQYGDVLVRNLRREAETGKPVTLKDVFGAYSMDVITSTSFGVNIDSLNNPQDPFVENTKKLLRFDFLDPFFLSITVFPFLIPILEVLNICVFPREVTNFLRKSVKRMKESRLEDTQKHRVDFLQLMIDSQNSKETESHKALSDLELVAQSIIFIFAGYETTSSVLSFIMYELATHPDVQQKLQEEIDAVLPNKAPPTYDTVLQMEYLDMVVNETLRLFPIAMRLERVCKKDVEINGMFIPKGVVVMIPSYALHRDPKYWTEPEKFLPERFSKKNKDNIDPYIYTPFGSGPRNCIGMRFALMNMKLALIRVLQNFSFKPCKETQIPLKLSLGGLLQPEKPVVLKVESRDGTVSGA

In the case of O=c1c(O)c(-c2ccc(O)c(O)c2)oc2cc(O)cc(O)c12 [quercetin], the “inhibition of paclitaxel metabolism by CYP3A4” value [1] is reported as “concentration-dependent manner”, the “effect on paclitaxel metabolism” value (paclitaxel metabolism [2]) is reported as “modest effect” and the “peak levels of quercetin measured in the livers” value [3] is reported as “approximately 15 μM”. The “inhibition of paclitaxel metabolism by CYP2C8” value [4] was “concentration-dependent manner” and the “inhibition of the metabolism of paclitaxel by CYP2C8” value (from here on “inhibition … of paclitaxel by CYP2C8”) (CYP2C8) was “selectively inhibit”.
For O=c1c(O)c(-c2ccc(O)cc2)oc2cc(O)cc(O)c12 [kaempherol], the “inhibition … of paclitaxel by CYP2C8” value (CYP2C8) is given as “selectively inhibit”.
For O=C1C[C@@H](c2ccc(O)cc2)Oc2cc(O)cc(O)c21 [naringenin], the “inhibition … of paclitaxel by CYP2C8” value (CYP2C8) is listed as “selectively inhibit”.
In the case of CC(=O)N1CCN(c2ccc(OCC3COC(Cn4ccnc4)(c4ccc(Cl)cc4Cl)O3)cc2)CC1 (stereo not drawn) [ketoconazole], the “inhibition of paclitaxel metabolism in humans” value (paclitaxel metabolism [5]) is listed as “unable to inhibit paclitaxel metabolism” and the “inhibition of paclitaxel metabolism by CYP2C8” value [4] is listed as “concentration-dependent manner”.
